Data taken from ChEMBL document CHEMBL5634159, “Discovery of novel tumor-targeted near-infrared probes with 6-substituted pyrrolo[2,3-d]pyrimidines as targeting ligands” (Eur J Med Chem, 2023).
Activity calls are given as the source filed them. The rule behind the calls is not given here.

Experiments:
[1] = Drug uptake in BALB/c mouse liver xenografted with human KB cells at 10 nmol measured for 8 hrs; assay type: ADME, tissue-based; details: in vivo
KB [2] = test: Binding affinity to Folate receptor in human KB cells assessed as relative fluorescence intensity incubated for 1 hr by flow cytometry analysis; assay type: cell-based
Folate receptor alpha = Folate receptor alpha (Homo sapiens, UniProt P15328); test: Binding affinity to Folate receptor alpha in human KB cells assessed as dissociation constant; assay type: cell-based
KB [3] = test: Binding affinity to Folate receptor in human KB cells assessed as relative fluorescence intensity preincubated with compound for 1 hr followed by folic acid addition and measured after 1 hr by flow cytometry analysis; assay type: cell-based; details: time 2.0 hrs
[4] = Drug uptake in BALB/c nude mouse tumor xenografted with human KB cells assessed as increase in fluorescence signals measured for 2 days; assay type: ADME, tissue-based, Neoplasm; details: in vivo, 48 h, time 2 day
HUVEC = test: Cytotoxicity against human HUVEC cells assessed as cell growth inhibition incubated for 24 hrs by CCK-8 assay; assay type: toxicity, cell-based
Folate receptor beta = Folate receptor beta (Mus musculus, UniProt Q05685); test: Binding affinity to Folate receptor beta in mouse RAW264.7 cells assessed as dissociation constant; assay type: cell-based
[5] = Drug uptake in BALB/c mouse kidney xenografted with human KB cells at 10 nmol measured for 8 hrs; assay type: ADME, tissue-based; details: in vivo
[6] = Drug uptake in BALB/c mouse heart xenografted with human KB cells at 10 nmol measured for 8 hrs; assay type: ADME, tissue-based; details: in vivo
[7] = Drug uptake in BALB/c mouse lung xenografted with human KB cells at 10 nmol measured for 8 hrs; assay type: ADME, tissue-based; details: in vivo
[8] = Drug uptake in BALB/c mouse stomach xenografted with human KB cells at 10 nmol measured for 8 hrs; assay type: ADME, tissue-based; details: in vivo
[9] = Ex vivo biodistribution in BALB/c mouse tumor of human KB cells expressing folate receptor alpha measured for 8 hrs by imaging analysis; assay type: ADME, organism-based, Neoplasm
[10] = Drug uptake in BALB/c mouse spleen xenografted with human KB cells at 10 nmol measured for 8 hrs; assay type: ADME, tissue-based; details: in vivo
KB [11] = test: Binding affinity to Folate receptor in human KB cells assessed as relative fluorescence intensity incubated for compound for 1 hr by flow cytometry analysis; assay type: cell-based
[12] = Drug uptake in BALB/c mouse intestine xenografted with human KB cells at 10 nmol measured for 8 hrs; assay type: ADME, tissue-based; details: in vivo
KB [13] = test: Binding affinity to Folate receptor in human KB cells assessed as increase in fluorescence intensity incubated for 2 hrs by fluorescence microscopic analysis; assay type: cell-based
[14] = Drug uptake in mouse RAW264.7 cells assessed as increase in fluorescence intensity in presence of folic acid by fluorescence microscopic analysis; assay type: ADME, cell-based
[15] = Drug uptake in human A549 cells assessed as increase in fluorescence intensity in presence of folic acid by fluorescence microscopic analysis; assay type: ADME, cell-based
[16] = Acute toxicity in ICR mouse assessed as effect on body weight at 10 micromol/ml measured for 14 days; details: in vivo, 336 h, dose 10 µmol/ml, time 14 day
[17] = Drug uptake in BALB/c mouse tumor xenografted with human KB cells at 10 nmol measured for 8 hrs in presence of folic acid; assay type: ADME, tissue-based, Neoplasm; details: in vivo
[18] = Drug uptake in BALB/c mouse tumor xenografted with human A549 cells at 10 nmol measured for 8 hrs in presence of folic acid; assay type: ADME, tissue-based, Neoplasm
[19] = Acute toxicity in ICR mouse assessed as liver damage at 10 micromol/ml measured for 14 days by H and E staining based analysis; assay type: tissue-based; details: in vivo, 336 h, dose 10 µmol/ml, time 14 day
[20] = Acute toxicity in ICR mouse assessed as animal death at 10 micromol/ml measured for 14 days; details: in vivo, 336 h, dose 10 µmol/ml, time 14 day
[21] = Acute toxicity in ICR mouse assessed as kidney damage at 10 micromol/ml measured for 14 days by H and E staining based analysis; assay type: tissue-based; details: in vivo, 336 h, dose 10 µmol/ml, time 14 day
[22] = Elimination half life in BALB/c mouse at 10 nmol measured for 8 hrs; assay type: ADME; details: in vivo, read-out: beta t1/2 (converted)
[23] = Ratio of biodistribution in tumor to heart of human KB cell xenografted in BALB/c mouse at 10 nmol measured for 8 hrs; assay type: ADME, organism-based; details: in vivo
[24] = Drug uptake in BALB/c mouse tumor xenografted with human KB cells at 10 nmol measured for 8 hrs; assay type: ADME, tissue-based, Neoplasm; details: in vivo
[25] = Ratio of biodistribution in tumor to lung of human KB cell xenografted in BALB/c mouse at 10 nmol measured for 8 hrs; assay type: ADME, organism-based; details: in vivo
[26] = Drug uptake in BALB/c nude mouse tumor xenografted with human A549 cells assessed as increase in fluorescence signals measured for 2 days; assay type: ADME, tissue-based, Neoplasm; details: 48 h, time 2 day
[27] = Acute toxicity in ICR mouse assessed as heart damage at 10 micromol/ml measured for 14 days by H and E staining based analysis; assay type: tissue-based; details: in vivo, 336 h, dose 10 µmol/ml, time 14 day
[28] = Acute toxicity in ICR mouse assessed as spleen damage at 10 micromol/ml measured for 14 days by H and E staining based analysis; assay type: tissue-based; details: in vivo, 336 h, dose 10 µmol/ml, time 14 day
[29] = Ratio of biodistribution in tumor to liver of human KB cell xenografted in BALB/c mouse at 10 nmol measured for 8 hrs; assay type: ADME, organism-based; details: in vivo
[30] = Acute toxicity in ICR mouse assessed as lung damage at 10 micromol/ml measured for 14 days by H and E staining based analysis; assay type: tissue-based; details: in vivo, 336 h, dose 10 µmol/ml, time 14 day
[31] = Acute toxicity in ICR mouse assessed as effect on food intake at 10 micromol/ml measured for 14 days; details: in vivo, 336 h, dose 10 µmol/ml, time 14 day
[32] = Half life in BALB/c mouse at 10 nmol measured for 8 hrs; assay type: ADME; details: in vivo

Chain of Folate receptor alpha (P15328 whole entry): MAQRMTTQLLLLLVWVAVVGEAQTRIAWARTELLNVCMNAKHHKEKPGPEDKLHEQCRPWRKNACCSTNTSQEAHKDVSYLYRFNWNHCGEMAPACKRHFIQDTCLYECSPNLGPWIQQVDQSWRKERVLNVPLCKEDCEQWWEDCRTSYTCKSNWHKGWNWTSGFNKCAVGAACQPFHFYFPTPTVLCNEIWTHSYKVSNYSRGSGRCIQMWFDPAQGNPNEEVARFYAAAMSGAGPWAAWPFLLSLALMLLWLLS
Chain of Folate receptor beta (Q05685 whole entry): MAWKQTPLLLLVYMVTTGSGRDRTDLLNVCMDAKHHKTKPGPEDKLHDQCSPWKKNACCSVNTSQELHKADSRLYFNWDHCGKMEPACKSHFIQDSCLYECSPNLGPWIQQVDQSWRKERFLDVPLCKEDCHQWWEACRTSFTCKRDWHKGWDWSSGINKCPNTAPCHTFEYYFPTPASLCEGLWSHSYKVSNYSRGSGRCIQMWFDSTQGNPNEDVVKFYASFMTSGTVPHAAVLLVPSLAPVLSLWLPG

Row | Compound | Drug uptake [1] | Kd (Folate receptor alpha) [nM] | Drug uptake [4] | Kd (Folate receptor beta) [nM] | Drug uptake [5] | Drug uptake [6] | Drug uptake [7] | Drug uptake [8] | Drug uptake [9] | Drug uptake [10] | Drug uptake [12] | Activity (KB [2]) | Activity (KB [3]) | Activity (HUVEC) | Activity (KB [11]) | also measured
1 | CC1(C)C(/C=C/C2=C(Oc3ccc(C[C@H](NC(=O)c4ccc(CCCCc5cc6c(=O)[nH]c(N)nc6[nH]5)s4)C(=O)O)cc3)C(=C/C=C3/N(CCCCS(=O)(=O)O)c4ccccc4C3(C)C)/CCC2)=[N+](CCCCS(=O)(=O)[O-])c2ccccc21 | Active | 10.3 | Active | 11 | – | – | – | – | – | – | – | Active | Active | Non-Toxic | – | –
2 | CC1(C)C(/C=C/C2=C(SC[C@@H](NC(=O)CC[C@H](NC(=O)CNC(=O)Cc3cc4c(=O)[nH]c(N)nc4[nH]3)C(=O)O)C(=O)O)C(=C/C=C3/N(CCCCS(=O)(=O)O)c4ccccc4C3(C)C)/CCC2)=[N+](CCCCS(=O)(=O)[O-])c2ccccc21 | Not Active | 61.2 | – | 47.9 | Not Active | Not Active | Not Active | Not Active | Active | Not Active | Not Active | – | – | Non-Toxic | inactive | –
3 | CC1(C)C(/C=C/C2=C(Oc3ccc(C[C@H](NC(=O)c4ccc(NCc5cnc6nc(N)[nH]c(=O)c6n5)cc4)C(=O)O)cc3)C(=C/C=C3/N(CCCCS(=O)(=O)O)c4ccccc4C3(C)C)/CCC2)=[N+](CCCCS(=O)(=O)[O-])c2ccccc21 | – | 22.1 | Active | 20.9 | – | – | – | – | – | – | – | Active | – | Non-Toxic | – | –
4 | CC1(C)C(/C=C/C2=C(Oc3ccc(C[C@H](NC(=O)c4ccc(CCCCc5cc6c(=O)[nH]c(N)nc6[nH]5)cc4)C(=O)O)cc3)C(=C/C=C3/N(CCCCS(=O)(=O)O)c4ccccc4C3(C)C)/CCC2)=[N+](CCCCS(=O)(=O)[O-])c2ccccc21 | – | 14.2 | Active | 16 | – | – | – | – | – | – | – | Active | Active | Non-Toxic | – | Activity [16]: Non-Toxic; Drug uptake [17]: Not Active; Drug uptake [18]: Not Active; Activity [19]: Non-Toxic; Activity [20]: Non-Toxic; Activity [21]: Non-Toxic; half-life [22]: 60 min; Ratio [23]: 13; Drug uptake [24]: Active; Ratio [25]: 8; Drug uptake [26]: Not Active; Activity [27]: Non-Toxic; Activity [28]: Non-Toxic; Ratio [29]: 2; Activity [30]: Non-Toxic; Activity [31]: Non-Toxic; half-life [32]: 15 min

More lines, main results first:

Row | Drug uptake [1] | Kd (Folate receptor alpha) [nM] | Drug uptake [4] | Kd (Folate receptor beta) [nM] | Drug uptake [5] | Drug uptake [6] | Drug uptake [7] | Drug uptake [8] | Drug uptake [9] | Drug uptake [10] | Drug uptake [12] | Compound | Activity (KB [2]) | Activity (KB [3]) | Activity (HUVEC) | Activity (KB [11]) | also measured
5 | Not Active | 81.9 | – | 58.9 | Not Active | Not Active | Not Active | Not Active | Active | Not Active | Not Active | CC1(C)C(/C=C/C2=C(SC[C@H](NC(=O)CNC(=O)Cc3cc4c(=O)[nH]c(N)nc4[nH]3)C(=O)O)C(=C/C=C3/N(CCCCS(=O)(=O)O)c4ccccc4C3(C)C)/CCC2)=[N+](CCCCS(=O)(=O)[O-])c2ccccc21 | – | – | Non-Toxic | inactive | –
6 | Not Active | 39.8 | Active | 26.1 | Not Active | Not Active | Not Active | Not Active | Active | Not Active | Not Active | CC1(C)C(/C=C/C2=C(Oc3ccc(C[C@H](NC(=O)CNC(=O)Cc4cc5c(=O)[nH]c(N)nc5[nH]4)C(=O)O)cc3)C(=C/C=C3/N(CCCCS(=O)(=O)O)c4ccccc4C3(C)C)/CCC2)=[N+](CCCCS(=O)(=O)[O-])c2ccccc21 | – | Active | Non-Toxic | Active | Activity (KB [13]): Active; Drug uptake [14]: Not Active; Drug uptake [15]: Not Active
